{
  "source": "paper PMC7395068",
  "about": "“The evolution of strategies to minimise the risk of human drug-induced liver injury (DILI) in drug discovery and development” (Archives of Toxicology, 2020)",
  "key": {"[1]": {"conditions": "cited from earlier work"}, "[2]": {"test_system": "primary human hepatocytes, NIH3T3 fibroblasts, BSEP, CYP3A4", "conditions": "cited from earlier work"}, "[3]": {"test_system": "THLE or HepG2 cells, isolated mitochondria, BSEP", "conditions": "cited from earlier work"}, "PHH": {"test_system": "PHH", "conditions": "cited from earlier work"}, "hLiMTs [4]": {"test_system": "hLiMTs", "conditions": "cited from earlier work"}, "[5]": {"test_system": "HepG2 C3A spheroid, BSEP, Glu/Gal in HepG2 cells, bioactivation", "conditions": "cited from earlier work"}, "[6]": {"conditions": "plasma free fraction; cited from earlier work"}, "[7]": {"conditions": "cited from earlier work", "remark": "listed apart in the source"}, "[8]": {"conditions": "ref Chen 2011; cited from earlier work"}, "hLiMTs [9]": {"test_system": "hLiMTs", "assay": "Combined HCI (HCS) and cellular ATP 3D assay in hLiMTs", "conditions": "for AC50 / minimal effective concentration: Homo sapiens"}, "HepaRG spheroids": {"test_system": "HepaRG spheroids", "assay": "Combined HCI (HCS) and cellular ATP 3D assay in HepaRG spheroids", "conditions": "for AC50 / minimal effective concentration: Homo sapiens"}, "[10]": {"conditions": "In vitro Assay, ref Schadt 2015"}, "[11]": {"conditions": "Modeled in vitro assays (cytotoxicity, mitochondrial dysfunction, BSEP), ref Aleo et al. 2019"}, "[12]": {"conditions": "In vitro Assay, ref Proctor 2017"}, "[13]": {"conditions": "Microtissue model structural based (HCI), combined HCS and ATP, MEC < 25 × Cmax.tot cut-off"}},
  "note": "Like-named read-outs stand apart in the source and are kept apart here.",
  "data": [
    {"smiles": "CS(=O)(=O)CCNCc1ccc(-c2ccc3ncnc(Nc4ccc(OCc5cccc(F)c5)c(Cl)c4)c3c2)o1", "note": "[lapatinib]", "values": [
      {"measurement": "DILI severity category (Chen et al. [2016])", "setting": "[1]; LTKB DILIrank category, ref Chen et al. 2016", "value": "Most"},
      {"measurement": "DILI severity category (Chen 2016)", "setting": "[1]; human DILI classification, LTKB DILIrank, ref Chen et al. 2016", "value": "Most"},
      {"measurement": "DILI severity category", "setting": "[1]; human DILI severity, ref Chen et al.", "value": "Most"},
      {"measurement": "DILI +VE (5-8), DILI -VE (-4)", "setting": "[1]; ref Chen 2016", "value": "+VE"},
      {"measurement": "DILI severity category", "setting": "[1]; ref Chen 2016", "value": "vMost-DILI-Concern"},
      {"measurement": "DILI in vitro assay prediction, Schadt (2015)", "setting": "[2]; BSEP & Metabolism based, ref Schadt et al. 2015", "value": "+VE"},
      {"measurement": "Cellular toxicity (3T3 cells)", "setting": "[2]; [10]", "value": "+VE"},
      {"measurement": "GSH adduct HML", "setting": "[2]; [10]", "value": "+VE"},
      {"measurement": "Hepatocyte cellular toxicity", "setting": "[2]; [10]", "value": "-VE"},
      {"measurement": "MitoTox 3T3", "setting": "[2]; [10]", "value": "-VE"},
      {"measurement": "TDI CYP3A4", "setting": "[2]; [10]", "value": "+VE"},
      {"measurement": "hBSEP inhibition", "setting": "[2]; [10]", "value": "-VE"},
      {"measurement": "Partition Hybrid HRM Score", "setting": "[3]; In vitro Assay, ref Aleo 2019", "value": "+VE"},
      {"measurement": "Ro2 Hybrid HRM Score", "setting": "[3]; In vitro Assay, ref Aleo 2019", "value": "+VE"},
      {"measurement": "Partition Hybrid HRM Score ≥4, Aleo (2019)", "setting": "[3]; [11]", "value": "+VE (Partition Hybrid HRM Score ≥4)"},
      {"measurement": "Partition Hybrid HRM Score ≥8, Aleo (2019)", "setting": "[3]; [11]", "value": "+VE (Partition Hybrid HRM Score ≥8)"},
      {"measurement": "Rule of Two hybrid HRM Score ≥3, Aleo (2019)", "setting": "[3]; [11]", "value": "+VE (Rule of Two hybrid HRM Score ≥3)"},
      {"measurement": "Rule of Two hybrid HRM Score ≥8, Aleo (2019)", "setting": "[3]; [11]", "value": "+VE (Rule of Two hybrid HRM Score ≥8)"},
      {"measurement": "PHH/100uM, Proctor (2017)", "setting": "PHH; 2D PHH, ATP, IC50 threshold 100 µM, ref Proctor et al. 2017", "value": "+VE (IC50 threshold of 100 µM)"},
      {"measurement": "PHH ATP <100uM", "setting": "PHH; [12]", "value": "+VE (IC50 threshold of 100 µM)"},
      {"measurement": "hLiMTs ATP <100uM", "setting": "hLiMTs [4]; [12]", "value": "+VE (IC50 threshold of 100 µM)"},
      {"measurement": "hLiMTs/100uM, Proctor (2017)", "setting": "hLiMTs [4]; hLiMTs, ATP, IC50 threshold 100 µM, ref Proctor et al. 2017", "value": "+VE (IC50 threshold of 100 µM)"},
      {"measurement": "Bayesian Machine Learning DILI prediction, Williams (2019)", "setting": "[5]; Bayesian modeling, ref Williams et al. 2019", "value": "+VE"},
      {"measurement": "Bayesian Machine Learning", "setting": "[5]; In vitro Assay, ref Williams 2019", "value": "+VE"},
      {"measurement": "fu", "setting": "[6]", "value": 0.010},
      {"measurement": "Assigned DILI category", "setting": "[7]; Chen et al. 2016 or literature alignment, ref Chen et al. 2016", "value": 3},
      {"measurement": "In vivo DILI", "setting": "[7]; ref Aleo 2019", "value": "+VE"},
      {"measurement": "In vivo DILI", "setting": "[7]; ref Proctor 2017", "value": "+VE"},
      {"measurement": "In vivo DILI", "setting": "[7]; ref Schadt 2015", "value": "+VE"},
      {"measurement": "In vivo DILI", "setting": "[7]; ref Williams 2019", "value": "+VE"},
      {"measurement": "DILI Score (FDA) (1-8)", "setting": "[8]", "value": 8},
      {"measurement": "AC50", "setting": "hLiMTs [9]; read-out: ATP endpoint AC50", "value": 30.1, "unit": "µM"},
      {"measurement": "minimal effective concentration", "setting": "hLiMTs [9]; read-out: ATP endpoint MEC", "value": 12.6, "unit": "µM"},
      {"measurement": "AC50", "setting": "hLiMTs [9]; read-out: HCS endpoint AC50", "value": 30.7, "unit": "µM"},
      {"measurement": "minimal effective concentration", "setting": "hLiMTs [9]; read-out: HCS endpoint MEC", "value": 1.79, "unit": "µM"},
      {"measurement": "DILI prediction hLiMTs (HCS-MEC)", "setting": "hLiMTs [9]; [13]", "value": "+VE (MEC < 25 × Cmax.tot cut-off)"},
      {"measurement": "hLiMTs <25x Avg Cmax ATP", "setting": "hLiMTs [9]; hLiMTs, ATP endpoint, cut-off <25x Avg Cmax", "value": "+ve"},
      {"measurement": "hLiMTs <100x Avg Cmaxu ATP", "setting": "hLiMTs [9]; hLiMTs, ATP endpoint, cut-off <100x Avg Cmaxu", "value": "-ve"},
      {"measurement": "hLiMTs <25x Avg Cmax HCS", "setting": "hLiMTs [9]; hLiMTs, HCS endpoints, cut-off <25x Avg Cmax", "value": "+ve"},
      {"measurement": "hLiMTs <100x Avg Cmaxu HCS", "setting": "hLiMTs [9]; hLiMTs, HCS endpoints, cut-off <100x Avg Cmaxu", "value": "+ve (<100x Avg Cmaxu)"},
      {"measurement": "hLiMTs <25x Avg Cmax All", "setting": "hLiMTs [9]; hLiMTs, all endpoints (ATP and HCS), cut-off <25x Avg Cmax", "value": "+ve"},
      {"measurement": "hLiMTs Cmax max All", "setting": "hLiMTs [9]; hLiMTs, all endpoints, Cmax max used", "value": "+ve"},
      {"measurement": "hLiMTs Cmax min All", "setting": "hLiMTs [9]; hLiMTs, all endpoints, Cmax min used", "value": "+ve"},
      {"measurement": "hLiMTs <10 uM All", "setting": "hLiMTs [9]; hLiMTs, all endpoints, cut-off <10 uM", "value": "+ve (<10 uM)"},
      {"measurement": "hLiMTs <100x Avg Cmaxu All", "setting": "hLiMTs [9]; hLiMTs, all endpoints, cut-off <100x Avg Cmaxu", "value": "+ve (<100x Avg Cmaxu)"},
      {"measurement": "HepaRG <25x Avg Cmax ATP", "setting": "HepaRG spheroids; HepaRG, ATP endpoint, cut-off <25x Avg Cmax", "value": "+ve"},
      {"measurement": "HepaRG <100x Avg Cmaxu ATP", "setting": "HepaRG spheroids; HepaRG, ATP endpoint, cut-off <100x Avg Cmaxu", "value": "+ve (<100x Avg Cmaxu)"},
      {"measurement": "HepaRG <25x Avg Cmax HCS", "setting": "HepaRG spheroids; HepaRG, HCS endpoints, cut-off <25x Avg Cmax", "value": "+ve"},
      {"measurement": "HepaRG <100x Avg Cmaxu HCS", "setting": "HepaRG spheroids; HepaRG, HCS endpoints, cut-off <100x Avg Cmaxu", "value": "+ve (<100x Avg Cmaxu)"},
      {"measurement": "HepaRG <25x Avg Cmax All", "setting": "HepaRG spheroids; HepaRG, all endpoints (ATP and HCS), cut-off <25x Avg Cmax", "value": "+ve"},
      {"measurement": "HepaRG Cmax max All", "setting": "HepaRG spheroids; HepaRG, all endpoints, Cmax max used", "value": "+ve"},
      {"measurement": "HepaRG Cmax min All", "setting": "HepaRG spheroids; HepaRG, all endpoints, Cmax min used", "value": "+ve"},
      {"measurement": "HepaRG <10 uM All", "setting": "HepaRG spheroids; HepaRG, all endpoints, cut-off <10 uM", "value": "+ve (<10 uM)"},
      {"measurement": "HepaRG <100x Avg Cmaxu All", "setting": "HepaRG spheroids; HepaRG, all endpoints, cut-off <100x Avg Cmaxu", "value": "+ve (<100x Avg Cmaxu)"},
      {"measurement": "AC50", "setting": "HepaRG spheroids; HepaRG, read-out: ATP endpoint AC50", "value": 2.11, "unit": "µM"},
      {"measurement": "minimal effective concentration", "setting": "HepaRG spheroids; HepaRG, read-out: ATP endpoint MEC", "value": 1.21, "unit": "µM"},
      {"measurement": "AC50", "setting": "HepaRG spheroids; HepaRG, read-out: HCS endpoint AC50", "value": 2.25, "unit": "µM"},
      {"measurement": "minimal effective concentration", "setting": "HepaRG spheroids; HepaRG, read-out: HCS endpoint MEC", "value": 0.768, "unit": "µM"},
      {"measurement": "DILI prediction HepaRG spheroids (HCS-MEC)", "setting": "HepaRG spheroids; [13]", "value": "+VE (MEC < 25 × Cmax.tot cut-off)"}
    ]}
  ]
}
